# According to patent US5744452A, “γ-L-glutamyl containing immunomodulator compounds and methods therewith” (Wei; Edward T., priority 1995, dated 1998):
# Key:
# murine spleen cells = experiment: IL-2 production by Concanavalin A activated murine spleen cells (CTLL-2 cell assay); assay type: cell-based, CBA mice; details: for IL-2 production by murine spleen cells: Table 2; for interleukin-2 production by murine spleen cells: Table 6
# Protocol: Spleen cells from CBA mice were cultured in tissue culture plates at a 10^6 cells/ml in RPMI-1640 medium supplemented with 10% fetal calf serum, 2 mM L-glutamine, and 80 μg/ml of Gentamycin. 1 μg/ml of Concanavalin A was used to activate basal IL-2 production from murine spleen lymphocytes. Bestim was added to cell cultures at the "0" time. After 36 hours supernatants were collected, centrifuged at 800 xg and IL-2 levels were measured in a CTLL-2 cell assay (Gillis et al., "T-cell Growth Factor: Parameters of Production and Quantitative Assay for Activity," J. Immunol., 120: 2027-2032, 1978). […] However, due to the variations in the method for IL-2 measurements clear dose-response comparisons could not be achieved.
# IL-2 production studies have been performed using murine spleen lymphocytes activated with Concanavalin A. Spleen cells from CBA mice were cultured in a tissue culture plates at a 1×10^6 /ml concentration in RPMI-1640 medium supplemented with 10% fetal calf serum, 2 mM L-glutamine,80 μg/ml Gentamycin and 1 μg/ml Concanavalin A as an inducer of basal level IL-2 synthesis. Bestim at various concentration was added to cell cultures at the "0" time. After 36 hours supernatants were collected, centrifuged at 800 xg and used for IL-2 levels determination in a CTLL-2 cell assay (Gillis et al., 1978). IL-2-dependent CTLL-2 cells were grown in RPMI-1640 medium in the presence of 1-2 U/ml recombinant IL-2 as a growth factor. Before assay, cells were washed twice to remove IL-2 from the medium. After this wash tested supernatants were added and cells were incubated for 36 hours. IL-2-induced proliferation was assayed using a ^3 H-thymidine incorporation method.
# mice = experiment: Pharmacological activity after oral administration to mice; assay type: in vivo; details: for .THETA.-antigen expression % of cells: bone marrow after 30 days; for IL-2 production: splenocytes after 30 days
# Protocol: Bestim dissolved in saline was given orally, for 5 days, to groups of 5 mice per dose. After 30 days, the quantity of .THETA.-antigen positive cells in bone marrow and IL-2 production by splenocytes were measured (as described in later in methods).
# [1] = system: patients with generalized surgical infection; experiment: Study in patients with generalized surgical infection; assay type: in vivo, human; details: for Adhesion (%) / Blast transformation PHA / Blast transformation spont / CD3 (%) / CD4 (%) / CD4/CD8 / CD8 (%) / CD16 (%) / CD72 (%) / Chemilumin luminol (induced) / Chemilumin luminol (spontaneous) / IL-1 production LPS induced / IL-1 production spontaneous / IgA / IgG / IgM / NBT test induced / NBT test spontaneous / TNF production spontaneous / TNF prpoduction LPS induced: surgical infection; for Alanine aminotransferase / Albumin / Asparagine aminotransferase / Band neutrophils (%) / Bilirubin / Creatinin / Hemoglobin / Mature neutrophils (%) / Monocytes (%) / Plasma protein / Urea: surgical patients
# Protocol: Preliminary studies were conducted to characterize the immunomodulatory properties of Bestim in human subjects. The protocol for the human subjects studies were reviewed and approved by a Hospital Committee (Moscow Hospital N-24) and informed consent was obtained from all subjects. All 62 patients received by intramuscular injection 0.1 mg of Bestim dissolved in 1.5 to 2.0 ml of sterile saline, one injection per day for 5 days. Patients participating in the clinical trials were from 2 groups:
# The second group consisted of 28 patients with generalized surgical infection. Bestim was given together with standard antibiotic therapy.
# Laboratory measurements (data in Table 8 to 10) were performed one day before and compared to values obtained three days after injection of Bestim.
# [2] = system: patient with colon cancer; experiment: Case History 1: immunodeficiency after cancer chemotherapy (Patient A); assay type: in vivo, human
# Protocol: Patient A was admitted with the diagnosis of colon cancer. Laboratory confirmed immunodeficiency which appeared as a complication of the main illness. Bestim preparation was applied by 5 daily intramuscular injections of 0.1 mg.
# viral hepatitis = experiment: Clinical trials in viral hepatitis; assay type: in vivo, human; details: trials in progress
# [3] = Bestim combined with conventional methods
compound,measurement,setting,value
"N[C@@H](CCC(=O)N[C@@H](Cc1c[nH]c2ccccc12)C(=O)O)C(=O)O [Bestim, γ-L-glutamyl-L-tryptophan]",IL-2 production by murine spleen cells,"murine spleen cells; peptide 0.001 μg/ml, 36 hours",159 ± 13
same,IL-2 production by murine spleen cells,murine spleen cells; peptide 0.01 μg/ml,134 ± 8
same,IL-2 production by murine spleen cells,murine spleen cells; peptide 0.1 μg/ml,98 ± 5
same,IL-2 production by murine spleen cells,murine spleen cells; peptide 1.0 μg/ml,157 ± 10
same,IL-2 production by murine spleen cells,murine spleen cells; peptide 10 μg/ml,95 ± 4
same,IL-2 production by murine spleen cells,murine spleen cells; peptide 100 μg/ml,112 ± 3
same,interleukin-2 production by murine spleen cells,murine spleen cells; peptide 0.001 μg/ml,149 ± 2
same,interleukin-2 production by murine spleen cells,murine spleen cells; peptide 0.01 μg/ml,162 ± 4
same,interleukin-2 production by murine spleen cells,murine spleen cells; peptide 0.1 μg/ml,172 ± 9
same,interleukin-2 production by murine spleen cells,murine spleen cells; peptide 1.0 μg/ml,271 ± 11
same,interleukin-2 production by murine spleen cells,murine spleen cells; peptide 10 μg/ml,160 ± 8
same,interleukin-2 production by murine spleen cells,murine spleen cells; peptide 100 μg/ml,186 ± 6
same,effect on IL-2 secretion from cells,murine spleen cells; conclusion from Table 2,enhances IL-2 secretion from cells at low doses
same,activity after oral administration,"mice; animal studies, summary",active after oral administration
same,.THETA.-antigen expression % of cells,mice; oral 0.1 μg/kg/day for 5 days,48 ± 1.9 % of cells
same,IL-2 production,mice; oral 0.1 μg/kg/day for 5 days,43 ± 11.5 Units/ml
same,.THETA.-antigen expression % of cells,mice; oral 1 μg/kg/day for 5 days,48 ± 3.0 % of cells
same,IL-2 production,mice; oral 1 μg/kg/day for 5 days,73 ± 16.3 Units/ml
same,.THETA.-antigen expression % of cells,mice; oral 10 μg/kg/day for 5 days,36 ± 2.3 % of cells
same,IL-2 production,mice; oral 10 μg/kg/day for 5 days,130 ± 11.8 Units/ml
same,clinical improvement,[1]; [3],more rapid clinical improvement
same,duration of the patient's stay in the clinic,[1]; [3],decreased the duration of the patient's stay in the clinic
same,Adhesion (%),[1]; Bestim After,41 ± 3%
same,Blast transformation PHA,[1]; Bestim After,8935 ± 780
same,Blast transformation spont,[1]; Bestim After,541 ± 48
same,CD3 (%),[1]; Bestim After,65 ± 5%
same,CD4 (%),[1]; Bestim After,40 ± 3%
same,CD4/CD8,[1]; Bestim After,1.92 ± 0.17
same,CD8 (%),[1]; Bestim After,22 ± 2%
same,CD16 (%),[1]; Bestim After,10.7 ± 2.1%
same,CD72 (%),[1]; Bestim After,4.0 ± 0.5%
same,Chemilumin luminol (induced),[1]; Bestim After,5063 ± 431
same,Chemilumin luminol (spontaneous),[1]; Bestim After,1427 ± 252
same,IL-1 production LPS induced,[1]; Bestim After,1601 ± 284
same,IL-1 production spontaneous,[1]; Bestim After,588 ± 201
same,IgA,[1]; Bestim After,2.2 ± 0.1 g/L
same,IgG,[1]; Bestim After,9.7 ± 0.9 g/L
same,IgM,[1]; Bestim After,1.2 ± 0.1 g/L
same,NBT test induced,[1]; Bestim After,144 ± 17
same,NBT test spontaneous,[1]; Bestim After,77 ± 11
same,TNF production spontaneous,[1]; Bestim After,286 ± 27
same,TNF prpoduction LPS induced,[1]; Bestim After,338 ± 81
same,Adhesion (%),[1]; Bestim Before,32 ± 3%
same,Blast transformation PHA,[1]; Bestim Before,4563 ± 524
same,Blast transformation spont,[1]; Bestim Before,435 ± 53
same,CD3 (%),[1]; Bestim Before,35 ± 5%
same,CD4 (%),[1]; Bestim Before,25 ± 4%
same,CD4/CD8,[1]; Bestim Before,2.09 ± 0.30
same,CD8 (%),[1]; Bestim Before,15 ± 2%
same,CD16 (%),[1]; Bestim Before,6.2 ± 1.1%
same,CD72 (%),[1]; Bestim Before,4.1 ± 0.6%
same,Chemilumin luminol (induced),[1]; Bestim Before,2943 ± 307
same,Chemilumin luminol (spontaneous),[1]; Bestim Before,1008 ± 90
same,IL-1 production LPS induced,[1]; Bestim Before,1014 ± 157
same,IL-1 production spontaneous,[1]; Bestim Before,481 ± 166
same,IgA,[1]; Bestim Before,2.4 ± 0.4 g/L
same,IgG,[1]; Bestim Before,10.6 ± 1.5 g/L
same,IgM,[1]; Bestim Before,1.2 ± 0.2 g/L
same,NBT test induced,[1]; Bestim Before,111 ± 15
same,NBT test spontaneous,[1]; Bestim Before,79 ± 12
same,TNF production spontaneous,[1]; Bestim Before,134 ± 55
same,TNF prpoduction LPS induced,[1]; Bestim Before,370 ± 64
same,Alanine aminotransferase,[1]; Bestim After,18 ± 3 IU/L
same,Albumin,[1]; Bestim After,40 ± 2 g/L
same,Asparagine aminotransferase,[1]; Bestim After,17 ± 3 IU/L
same,Band neutrophils (%),[1]; Bestim After,7 ± 1.6%
same,Bilirubin,[1]; Bestim After,7 ± 1 μM/L
same,Creatinin,[1]; Bestim After,98 ± 4 μM/L
same,Hemoglobin,[1]; Bestim After,101 ± 4 g/L
same,Mature neutrophils (%),[1]; Bestim After,70 ± 1%
same,Monocytes (%),[1]; Bestim After,3.6 ± 0.7%
same,Plasma protein,[1]; Bestim After,73 ± 3 g/L
same,Urea,[1]; Bestim After,4.0 ± 0.4 mM/L
same,Alanine aminotransferase,[1]; Bestim Before,29 ± 7 IU/L
same,Albumin,[1]; Bestim Before,38 ± 2 g/L
same,Asparagine aminotransferase,[1]; Bestim Before,30 ± 9 IU/L
same,Band neutrophils (%),[1]; Bestim Before,12 ± 2%
same,Bilirubin,[1]; Bestim Before,10 ± 1 μM/L
same,Creatinin,[1]; Bestim Before,117 ± 7 μM/L
same,Hemoglobin,[1]; Bestim Before,98 ± 4 g/L
same,Mature neutrophils (%),[1]; Bestim Before,76 ± 2%
same,Monocytes (%),[1]; Bestim Before,3.2 ± 0.5%
same,Plasma protein,[1]; Bestim Before,70 ± 3 g/L
same,Urea,[1]; Bestim Before,5.5 ± 0.3 mM/L
same,Lymphocytes,[2]; After Bestim Therapy,1800 per mm^3
same,T-Lymphocytes (CD3),[2]; After Bestim Therapy,60%
same,T-helper lymphocytes (CD4),[2]; After Bestim Therapy,35%
same,White blood cells,[2]; After Bestim Therapy (5 daily i.m. 0.1 mg),6.9 × 10^3 per mm^3
same,Lymphocytes,[2]; Before Therapy,200 per mm^3
same,T-Lymphocytes (CD3),[2]; Before Therapy,23%
same,T-helper lymphocytes (CD4),[2]; Before Therapy,14%
same,White blood cells,[2]; Before Therapy,5.5 × 10^3 per mm^3
same,signs and symptoms of viral hepatitis,viral hepatitis,ameliorates the signs and symptoms of viral hepatitis
